The values that follow come from patent US20230024991A1, “PRODRUGS OF ACYL CARNITINES” (ATAI Life Sciences AG, priority 2021, published 2023).

For data set [1] the following is noted: normal baseline conditions; cited from earlier work.
The conditions of data set [2]: cited from earlier work.
A short description of data set [3]: Determination of plasma half life, human plasma. In kind it is in vitro ADME. Conditions: 37° C. (Table 1), read-out: Human Mean t1/2. The procedure: (§1) Human, rat, and dog plasma were dialyzed against PBS buffer, pH 7.4 using Thermo Slide-A-Lyzer™ G2 Dialysis Cassettes for 24 hours at 4° C. prior to the experiment.
(§2) The assay was carried out in 96-well microtiter plates. Prodrugs and the reference compound (propantheline) at a final concentration of 1 μM were incubated separately in singlet at 37° C. with mouse, rat, dog, monkey or human plasma for 0, 30, 60, 120, 240, and 1440 min. At the end of each incubation time point, 300 μL of the quenching solutions (50% acetonitrile, 50% methanol, 0.05% formic acid) containing the internal standards (bucetin and d3-carnitine) was added to each well. The incubation plates were sealed, vortexed, and centrifuged at 10° C. for 15 minutes at 4000 rpm. The supernatant was transferred to fresh plates for LC/MS/MS analysis of the test compounds.
(§3) All samples were analyzed by LC/MS/MS using an AB Sciex API 4000 instrument (AB Sciex LLC, Framingham, Mass.), coupled to a Shimadzu LC-20AD LC Pump system (Shimadzu North America, Columbia, Md.). […]
(§4) The extent of metabolism was calculated based on the disappearance of prodrugs, compared to their initial concentration. The initial rates of clearance of prodrugs were calculated using linear regression plot of semi-log % remaining of prodrugs versus time. […]

A short description of data set [4]: Determination of plasma half life, dog plasma. In kind it is in vitro ADME. Conditions: pH 7.4, 37° C. (Table 4). The procedure: as §1, §2, §3, §4
Data set [5] in a line: Determination of plasma half life, rat plasma. As to conditions: pH 7.4, 37° C. (Table 4), read-out: Mean t1/2. In kind it is in vitro ADME. How it is done: as §1, §2, §3, §4

As for `C[N+](C)(C)C[C@H](O)CC(=O)[O-]` [L-carnitine], the “tubular reabsorption in the kidney” value in data set [1] is “about 99%”. In addition, in data set [2] (dietary, depends on the amount in the meal), the “bioavailability of dietary L-carnitine” value is 54-87%. The bioavailability in data set [2] (oral administration of large amounts of exogenous carnitine (1-6 g)) is 5-18%.
For the compound `CCCCC(=O)O[C@H](CC(=O)OCC)C[N+](C)(C)C` [Compound 4, (R)-4-ethoxy-N,N,N-trimethyl-4-oxo-2-(pentanoyloxy)butan-1-aminium chloride], the values for the half-life at 1 μM in data set [3], in data set [4] and in data set [5] were 0.927 h, 11.7 h and 4.33 h, respectively.
Take `CCOC(=O)C[C@H](C[N+](C)(C)C)OC(=O)CC` [Compound 3, (R)-4-ethoxy-N,N,N-trimethyl-4-oxo-2-(propionyloxy)butan-1-aminium chloride]: the half-life at 1 μM was determined as 9.16 h in data set [3], 22.7 h in data set [4] and 8.79 h in data set [5].
